Measurements: ChEMBL document CHEMBL3727357, “Compositions and methods for inhibiting g protein signaling” (2010)
Activity calls are given as the source filed them. The rule behind the calls is not given here.

How the values were obtained:
[1] = target: T1, Guanine nucleotide-binding protein G(I)/G(S)/G(T) subunit beta-1/gamma-2 (Homo sapiens, UniProt P62873+P59768); test: Inhibition of biotinylated Gbeta1gamma2 (unknown origin) binding to PLCbeta2 at 1 uM incubated for 16 hrs; type: protein-complex assay
Target sequence in this assay (P59768 2-71 partner limits assumed): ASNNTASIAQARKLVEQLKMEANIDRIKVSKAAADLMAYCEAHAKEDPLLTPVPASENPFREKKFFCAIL
Target sequence in this assay (P62873 2-340 limits assumed): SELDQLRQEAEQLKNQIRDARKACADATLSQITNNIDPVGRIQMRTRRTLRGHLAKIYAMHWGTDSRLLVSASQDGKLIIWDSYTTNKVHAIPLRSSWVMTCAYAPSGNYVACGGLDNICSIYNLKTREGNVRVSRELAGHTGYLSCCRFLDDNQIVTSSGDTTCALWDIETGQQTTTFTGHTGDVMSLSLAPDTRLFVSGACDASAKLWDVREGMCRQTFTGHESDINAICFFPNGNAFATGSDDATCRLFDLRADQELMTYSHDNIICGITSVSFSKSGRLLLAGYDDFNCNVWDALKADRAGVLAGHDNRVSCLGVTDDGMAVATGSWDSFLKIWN

[2] = system: HL-60; test: Effect on fMLP-stimulated ERK1/2 phosphorylation in human HL60 cells at 10 uM incubated for 5 mins prior to fMLP stimulation by Western blot analysis; type: functional, cell-based
[3] = target: T1, Guanine nucleotide-binding protein G(I)/G(S)/G(T) subunit beta-1/gamma-2; test: Inhibition of biotinylated Gbeta1gamma2 (unknown origin) binding to PLCbeta3 at 1 uM incubated for 16 hrs; type: protein-complex assay
Target sequence in this assay (P59768 2-71 partner limits assumed): as the sequence (P59768 2-71 partner limits assumed) above
Target sequence in this assay (P62873 2-340 limits assumed): as the sequence (P62873 2-340 limits assumed) above

[4] = system: HL-60; test: Binding affinity to Gbetagamma in human HL60 cells assessed as inhibition of fMLP-stimulated GRK2 translocation at 10 uM incubated for 5 mins prior to fMLP stimulation by Western blot analysis; type: cell-based
[5] = target: Guanine nucleotide-binding protein G(I)/G(S)/G(T) subunit beta-1/gamma-2 (Homo sapiens, UniProt P59768+P62873); test: (§1) Inhibition of SIGKAFKILGYPDYD binding to biotinylated Gbeta1gamma2 (unknown origin) incubated for 1 hr by phage ELISA; type: protein-complex assay
[6] = target: T1, Guanine nucleotide-binding protein G(I)/G(S)/G(T) subunit beta-1/gamma-2; test: Inhibition of biotinylated Gbeta1gamma2 (unknown origin)-mediated PLCbeta2 activation incubated for 16 hrs; type: protein-complex assay
Target sequence in this assay (P59768 2-71 limits assumed): as the sequence (P59768 2-71 partner limits assumed) above
Target sequence in this assay (P62873 2-340 limits assumed): as the sequence (P62873 2-340 limits assumed) above

[7] = target: T1, Guanine nucleotide-binding protein G(I)/G(S)/G(T) subunit beta-1/gamma-2; test: Inhibition of biotinylated Gbeta1gamma2 (unknown origin)-mediated PLCbeta3 activation incubated for 16 hrs; type: protein-complex assay
Target sequence in this assay (P59768 2-71 limits assumed): as the sequence (P59768 2-71 partner limits assumed) above
Target sequence in this assay (P62873 2-340 limits assumed): as the sequence (P62873 2-340 limits assumed) above

[8] = system: CHO; test: Inhibition of human Gbetagamma-dependent kappa opioid receptor-mediated PLC activation expressed in CHO cells assessed as reduction of U50,488-mediated total inositol phosphate production at 10 uM after 30 mins by scintillation counting analysis in presence of [3H]inositol; type: cell-based
[9] = target: T1, Guanine nucleotide-binding protein G(I)/G(S)/G(T) subunit beta-1/gamma-2; test: Inhibition of SIGKAFKILGYPDYD binding to biotinylated Gbeta1gamma2 (unknown origin) at 300 uM incubated for 1 hr by phage ELISA; type: protein-complex assay
Target sequence in this assay (P59768 2-71 partner limits assumed): as the sequence (P59768 2-71 partner limits assumed) above
Target sequence in this assay (P62873 2-340 limits assumed): as the sequence (P62873 2-340 limits assumed) above

[10] = target: T1, Guanine nucleotide-binding protein G(I)/G(S)/G(T) subunit beta-1/gamma-2; test: as §1; type: protein-complex assay
Target sequence in this assay (P59768 2-71 partner limits assumed): as the sequence (P59768 2-71 partner limits assumed) above
Target sequence in this assay (P62873 2-340 limits assumed): as the sequence (P62873 2-340 limits assumed) above

[11] = target: Mu-type opioid receptor (Homo sapiens) (UniProt P35372); test: Inhibition of human Gbetagamma-dependent mu opioid receptor-mediated PLC activation expressed in CHO cells assessed as reduction of DAMGO-mediated total inositol phosphate production at 10 uM after 30 mins by scintillation counting analysis in presence of [3H]inositol; type: functional, cell-based
[12] = target: Mu-type opioid receptor (Homo sapiens) (UniProt P35372); test: Inhibition of human Gbetagamma-dependent mu opioid receptor-mediated PLC activation expressed in CHO cells assessed as reduction of morphine-mediated total inositol phosphate production at 10 uM after 30 mins by scintillation counting analysis in presence of [3H]inositol; type: functional, cell-based

Chain of Guanine nucleotide-binding protein G(I)/G(S)/G(T) subunit beta-1/gamma-2 (Homo sapiens, UniProt P59768+P62873) (P59768 2-71 partner limits assumed): as the sequence (P59768 2-71 partner limits assumed) above
Chain of Guanine nucleotide-binding protein G(I)/G(S)/G(T) subunit beta-1/gamma-2 (Homo sapiens, UniProt P59768+P62873) (P62873 2-340 limits assumed): as the sequence (P62873 2-340 limits assumed) above
Chain of Mu-type opioid receptor (Homo sapiens) (P35372 whole entry): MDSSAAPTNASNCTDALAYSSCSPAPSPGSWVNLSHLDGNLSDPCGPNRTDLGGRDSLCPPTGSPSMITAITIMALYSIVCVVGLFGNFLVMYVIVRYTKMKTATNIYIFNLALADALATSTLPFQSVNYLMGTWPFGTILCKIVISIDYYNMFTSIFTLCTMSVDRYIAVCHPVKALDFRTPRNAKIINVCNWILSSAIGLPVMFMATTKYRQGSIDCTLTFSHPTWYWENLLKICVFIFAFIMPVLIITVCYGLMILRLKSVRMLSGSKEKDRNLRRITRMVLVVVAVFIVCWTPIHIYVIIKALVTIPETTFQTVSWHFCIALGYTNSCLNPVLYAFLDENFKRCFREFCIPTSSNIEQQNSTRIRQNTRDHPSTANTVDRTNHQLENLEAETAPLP

`COc1cc2c(c(OC)c1OC)-c1ccc(O)c(=O)cc1C(N)CC2` (stereo not given) was tested, and the inhibition [1] was “inactive”, the Activity [2] was “inactive” and the inhibition [3] was “inactive”. For the same compound, the inhibition [4] was “Active”.
Work on `O=C(O)c1cccc2cccc(-c3c4ccc(=O)c(O)c-4oc4c(O)c(O)ccc34)c12` yielded an IC50 [5] of 0.13 µM.
`Ic1ccc2c(c1)N(c1ccccc1)c1cc(Nc3ccc4nc5ccc(I)cc5[n+](-c5ccccc5)c4c3)ccc1N2` was tested, and the IC50 [6] was “Not Active” and the IC50 [7] was “Not Active”.
With `Oc1ccc2c3c1O[C@H]1c4[nH]c5c(c4C[C@@]4(O)[C@@H](C2)N(CC2CC2)CC[C@]314)C[C@@]1(O)[C@H]2Cc3ccc(O)c4c3[C@@]1(CCN2CC1CC1)[C@H]5O4` the inhibition [8] was “inactive”.
For `Cc1c2cc(O)c(=O)cc-2oc2cc(O)c(O)cc12`, the inhibition [9] was “inactive” and the inhibition [10] was “inactive”.
`O=C(O)c1ccc(-c2c3ccc(=O)cc-3oc3cc(O)ccc23)cc1` was tested, and the inhibition [9] was “inactive” and the inhibition [10] was “inactive”.
In the case of `CC1C2C=CC1C(c1c3ccc(=O)cc-3oc3cc(O)ccc13)C2C(=O)O` (stereo not given), the IC50 [5] is reported as 14 µM.
For `COC(=O)/C=C/C(=O)N[C@@H]1CC[C@@]2(O)[C@H]3Cc4ccc(O)c5c4[C@@]2(CCN3CC2CC2)[C@H]1O5`, the inhibition [11] was “Active” and the inhibition [12] was “Active”.
